Results from patent publication US20240182407A1, “QUINOLINE COMPOUND SALT OR CRYSTAL FORM, PREPARATION METHOD THEREFOR, AND APPLICATION THEREOF” (Nanjing Zenshine Pharmaceuticals Co., Ltd., priority 2021, published 2024).
≈ marks a conversion by molar mass, not a printed value. Where “and” joins values, the source holds several entries; their conditions need not be identical. Equal entries are not always repeated.

Columns and labels:
[1] = Solubility in simulated gastrointestinal fluids (SGF, FeSSIF, FaSSIF) at 37° C.; format: physicochemical; details: for Solubility: 37° C.; for Solubility / pH of filtrate: listed as Sample 5; for solubility at 30 min / solubility at 2 h / solubility at 24 h: 37 °C, thermodynamic from solid
Protocol: The solubilities of Compound A and p-toluenesulfonate (Sample 5, crystal form I) in simulated gastrointestinal fluids (SGF, FeSSIF and FaSSIF) at 37° C. were tested.
About 7.5 mg of Compound A and p-toluenesulfonate were separately added to 1.5 mL of three biological vehicles to prepare suspensions. All the suspensions were placed in a shaker at 37° C. and shaken at 200 rpm for 24 h, and about 0.5 mL was sampled separately at 0.5 h, 2 h and 24 h for filtration. The obtained filtrates were subjected to HPLC analysis and pH measurement, and the filter cakes were respectively measured by XRPD.

[2] = system: mouse colorectal cancer CT26. WT cell; experiment: Mouse colorectal cancer CT26. WT cell subcutaneous transplantation tumor model; format: in vivo
Description: (§1) WT cell subcutaneous transplantation tumor model.

[3] = Solid stability, 40° C./75% RH and 60° C., one week (HPLC purity, XRPD); format: physicochemical
Protocol: Appropriate amounts of Compound A and p-toluenesulfonate of Compound A (Sample 5, crystal form I) were respectively placed in 40° C./75% RH and 60° C. environments for one week to determine solid stability. At days 0 and 7, HPLC purity analysis and solid XRPD determination were carried out, and some of the results were as shown in Table 7.

PI3Kβ (p110β) = PI3Kβ (p110β) (Homo sapiens, UniProt P42338); experiment: ADP-Glo kinase inhibition, PI3Kβ; details: read-out: IC50 PI3Kβ Biochemical
Sequence of PI3Kβ (p110β) (P42338 whole entry): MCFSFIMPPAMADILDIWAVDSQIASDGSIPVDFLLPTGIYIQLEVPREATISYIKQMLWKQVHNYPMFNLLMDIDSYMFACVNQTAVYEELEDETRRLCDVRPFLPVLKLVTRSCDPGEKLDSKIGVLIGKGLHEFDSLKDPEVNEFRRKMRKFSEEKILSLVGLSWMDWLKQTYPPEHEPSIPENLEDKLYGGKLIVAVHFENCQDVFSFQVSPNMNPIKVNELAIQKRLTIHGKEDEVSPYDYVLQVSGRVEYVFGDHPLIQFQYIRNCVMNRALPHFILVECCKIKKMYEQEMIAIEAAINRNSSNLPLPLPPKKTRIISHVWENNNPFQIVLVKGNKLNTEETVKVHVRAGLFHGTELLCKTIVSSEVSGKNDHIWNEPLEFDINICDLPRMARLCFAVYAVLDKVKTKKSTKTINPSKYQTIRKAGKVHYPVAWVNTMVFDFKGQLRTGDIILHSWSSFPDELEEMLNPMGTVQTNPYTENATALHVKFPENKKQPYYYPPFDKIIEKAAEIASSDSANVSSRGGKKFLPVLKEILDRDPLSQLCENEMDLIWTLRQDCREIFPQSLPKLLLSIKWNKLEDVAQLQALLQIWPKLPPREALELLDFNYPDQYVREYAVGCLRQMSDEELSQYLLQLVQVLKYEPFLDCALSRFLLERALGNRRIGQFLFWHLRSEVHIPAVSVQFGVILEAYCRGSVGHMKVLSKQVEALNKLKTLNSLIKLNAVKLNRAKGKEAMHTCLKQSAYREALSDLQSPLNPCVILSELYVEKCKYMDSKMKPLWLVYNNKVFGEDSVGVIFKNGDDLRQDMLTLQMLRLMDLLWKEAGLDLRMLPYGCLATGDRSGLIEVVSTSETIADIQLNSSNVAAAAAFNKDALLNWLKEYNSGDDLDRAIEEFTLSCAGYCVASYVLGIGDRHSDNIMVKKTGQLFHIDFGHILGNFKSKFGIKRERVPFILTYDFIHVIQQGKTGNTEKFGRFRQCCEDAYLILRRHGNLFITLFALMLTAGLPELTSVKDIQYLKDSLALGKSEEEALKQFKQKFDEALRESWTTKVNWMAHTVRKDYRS
Protocol: (§2) In Example 7, the inhibitory effects of Sample 6 prepared in Example 6 above on kinases PI3Kα, PI3Kβ, PI3Kγ and PI3Kδ were tested.
(§3) The kinases used in the experiment were respectively purchased from: • PI3Kα (p110α/p85α), purchased from Invitrogen, under Cat. No. PV4788; • PI3Kβ (p110β), purchased from eurofins, under Cat. No. 14-603M; • PI3Kδ (p110δ/p85a), purchased from Invitrogen, under Cat. No. PV6452; and • PI3Kγ (p110γ), purchased from Invitrogen, under Cat. No. PR8641C. • Firstly, a 1× kinase buffer solution was prepared, which comprised: • 50 mM HEPES, pH 7.5 • 3 mM MgCl2 • 1 mM EGTA • 100 mM NaCl • 0.03% CHAPS • 2 mM DTT
(§4) On kinases PI3Kα, PI3Kβ and PI3Kγ, the final detection concentration of the compound was 10 μM. 100× concentration was prepared, i.e., 1000 μM. 90 μL of 100% DMSO was added to the second well in row A on a 96-well plate, 10 μL of a 10 mM compound solution was then added, and 3-fold serial dilution was made to obtain a total of 10 concentrations.
(§5) 50 μL of 100% DMSO was transferred to two empty wells as Max well and Min well, respectively.
(§6) 50 nL of the compound was transferred into a 384-well plate using ECHO550.
(§7) Preparation of 2× kinase solution: the kinase was added to a 1× kinase buffer to prepare a 2× enzyme solution. […]
(§8) Finally, the chemiluminescence values were read from Envision 2104 Multi-label Reader and subjected to curve fitting, and IC50 was calculated.

DoHH-2 = experiment: Proliferation of lymphoma cell line in vitro, DoHH-2; format: cell-based; details: Homo sapiens, read-out: absolute IC50 (AbsIC50), proliferation
mouse breast cancer 4T1 = experiment: Mouse breast cancer 4T1 subcutaneous transplantation tumor model; format: in vivo
Description: as §1

PI3Kδ = molecular target: T1, PI3Kδ (Homo sapiens, UniProt O00329); experiment: Akt phosphorylation in Raji cells stimulated by IgM (AlphaLISA); details: phosphorylation of Akt, read-out: IC50 PI3Kδ Cell-based
T1 construct: host or cells: Raji cells
T1 sequence (O00329 whole entry): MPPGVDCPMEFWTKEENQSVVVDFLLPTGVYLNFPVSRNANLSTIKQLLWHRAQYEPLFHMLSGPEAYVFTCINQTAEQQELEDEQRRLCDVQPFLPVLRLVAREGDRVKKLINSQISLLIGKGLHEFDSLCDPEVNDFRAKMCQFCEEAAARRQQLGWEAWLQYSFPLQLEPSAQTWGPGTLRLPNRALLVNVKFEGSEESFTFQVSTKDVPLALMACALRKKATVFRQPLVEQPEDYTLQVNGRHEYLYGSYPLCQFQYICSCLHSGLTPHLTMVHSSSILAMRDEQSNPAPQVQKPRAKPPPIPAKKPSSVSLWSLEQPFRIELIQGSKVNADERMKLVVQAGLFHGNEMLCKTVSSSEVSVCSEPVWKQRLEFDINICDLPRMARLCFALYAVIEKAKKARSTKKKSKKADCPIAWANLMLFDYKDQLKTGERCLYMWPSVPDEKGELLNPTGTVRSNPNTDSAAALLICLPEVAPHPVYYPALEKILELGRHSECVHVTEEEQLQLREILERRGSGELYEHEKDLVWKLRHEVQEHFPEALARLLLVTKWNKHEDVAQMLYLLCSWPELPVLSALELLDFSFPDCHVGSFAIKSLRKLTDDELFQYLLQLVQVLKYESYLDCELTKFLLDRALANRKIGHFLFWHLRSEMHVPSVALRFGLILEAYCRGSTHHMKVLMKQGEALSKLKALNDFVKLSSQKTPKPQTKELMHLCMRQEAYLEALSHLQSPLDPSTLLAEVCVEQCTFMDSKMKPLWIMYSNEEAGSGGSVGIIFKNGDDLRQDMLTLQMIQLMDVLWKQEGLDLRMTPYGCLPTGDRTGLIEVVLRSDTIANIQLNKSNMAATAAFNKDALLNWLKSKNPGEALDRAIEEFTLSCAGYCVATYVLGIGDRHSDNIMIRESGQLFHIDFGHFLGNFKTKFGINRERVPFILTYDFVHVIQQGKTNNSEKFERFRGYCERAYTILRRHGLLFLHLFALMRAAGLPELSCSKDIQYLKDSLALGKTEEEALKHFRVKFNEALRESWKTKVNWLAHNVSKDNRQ
T1 sequence (P27986 whole entry partner): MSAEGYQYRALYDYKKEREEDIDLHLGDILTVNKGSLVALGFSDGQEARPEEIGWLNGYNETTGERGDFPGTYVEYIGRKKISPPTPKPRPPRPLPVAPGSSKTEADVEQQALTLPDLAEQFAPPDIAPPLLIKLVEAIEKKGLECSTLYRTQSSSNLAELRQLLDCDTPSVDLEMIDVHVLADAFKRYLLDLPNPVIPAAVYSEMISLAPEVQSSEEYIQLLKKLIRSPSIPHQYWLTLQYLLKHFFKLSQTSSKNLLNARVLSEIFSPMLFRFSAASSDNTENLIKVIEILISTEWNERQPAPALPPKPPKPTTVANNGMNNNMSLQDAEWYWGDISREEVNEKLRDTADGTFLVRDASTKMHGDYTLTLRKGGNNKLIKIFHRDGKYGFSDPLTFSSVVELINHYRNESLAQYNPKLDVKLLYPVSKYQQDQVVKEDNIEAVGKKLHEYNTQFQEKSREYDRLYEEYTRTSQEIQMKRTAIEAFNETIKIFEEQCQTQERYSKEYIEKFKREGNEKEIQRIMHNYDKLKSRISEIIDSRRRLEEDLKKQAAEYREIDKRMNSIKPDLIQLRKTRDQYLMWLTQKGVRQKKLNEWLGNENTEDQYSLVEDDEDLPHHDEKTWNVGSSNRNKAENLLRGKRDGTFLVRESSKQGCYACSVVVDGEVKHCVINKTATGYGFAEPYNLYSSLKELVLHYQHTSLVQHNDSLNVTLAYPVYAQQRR
Protocol: In addition, taking Sample 6 as an example, the inhibitory effects thereof on PI3Kα, PI3Kβ, PI3Kγ and PI3Kδ in corresponding cells were determined. The activity of PI3Kα was detected by the phosphorylation level of Akt in C2Cl2 cells stimulated by IGF-1, the activity of PI3Kβ was detected by the phosphorylation level of Akt in PC-3 cells stimulated by LPA, the activity of PI3Kγ was detected by the phosphorylation level of Akt in Raw264.7 cells stimulated by c5α, and the activity of PI3Kδ was detected by the phosphorylation level of Akt in Raji cells stimulated by IgM. The phosphorylation level of Akt in cells was determined by means of AlphaLISA technique from PerkinElemer.
The C2C12 cells, PC-3 cells, Raw264.7 cells and Raji cells were all purchased from ATCC.

PI3Kγ (p110γ) = molecular target: T2, PI3Kγ (p110γ) (Homo sapiens, UniProt P48736); experiment: ADP-Glo kinase inhibition, PI3Kγ; details: read-out: IC50 PI3Kγ Biochemical
T2 construct: purchased Invitrogen PR8641C
T2 sequence (P48736 whole entry): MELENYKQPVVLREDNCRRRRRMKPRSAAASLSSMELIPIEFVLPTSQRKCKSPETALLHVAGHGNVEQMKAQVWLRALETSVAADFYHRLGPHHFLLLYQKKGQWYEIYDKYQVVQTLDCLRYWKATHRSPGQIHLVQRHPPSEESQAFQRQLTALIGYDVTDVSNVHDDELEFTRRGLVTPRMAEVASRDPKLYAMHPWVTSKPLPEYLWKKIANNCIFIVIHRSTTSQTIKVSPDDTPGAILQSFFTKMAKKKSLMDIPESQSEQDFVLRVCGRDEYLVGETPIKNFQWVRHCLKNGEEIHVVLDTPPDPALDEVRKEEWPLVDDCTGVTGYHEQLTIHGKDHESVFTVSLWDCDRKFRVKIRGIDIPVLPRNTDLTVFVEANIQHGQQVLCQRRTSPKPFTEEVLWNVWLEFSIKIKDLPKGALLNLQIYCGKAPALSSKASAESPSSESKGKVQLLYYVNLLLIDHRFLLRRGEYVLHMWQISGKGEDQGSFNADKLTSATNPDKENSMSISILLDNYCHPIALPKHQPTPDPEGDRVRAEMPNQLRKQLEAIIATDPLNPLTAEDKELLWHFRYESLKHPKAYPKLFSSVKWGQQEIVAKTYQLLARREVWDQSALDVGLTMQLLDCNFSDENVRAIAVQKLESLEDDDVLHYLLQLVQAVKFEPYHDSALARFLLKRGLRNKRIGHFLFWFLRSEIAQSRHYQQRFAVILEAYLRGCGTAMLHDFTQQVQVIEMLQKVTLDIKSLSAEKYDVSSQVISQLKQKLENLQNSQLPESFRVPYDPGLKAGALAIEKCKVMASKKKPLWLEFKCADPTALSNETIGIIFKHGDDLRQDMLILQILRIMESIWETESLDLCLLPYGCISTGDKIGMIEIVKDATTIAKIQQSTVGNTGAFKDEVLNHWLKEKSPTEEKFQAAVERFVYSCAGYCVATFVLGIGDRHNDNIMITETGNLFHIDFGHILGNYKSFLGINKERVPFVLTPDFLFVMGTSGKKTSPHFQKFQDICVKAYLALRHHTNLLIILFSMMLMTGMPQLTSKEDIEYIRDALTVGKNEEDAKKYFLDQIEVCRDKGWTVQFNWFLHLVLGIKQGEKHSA
Protocol: as §2, §3, §4, §5, §6, §7, §8

C[C@H](Nc1nc(N)nc(N)c1C#N)c1cc2ccc(F)cc2nc1-c1ccccn1 [p-toluenesulfonate of Compound A]
Solubility ([1]; FaSSIF (pH 6.52), 30 min): 570 µg/mL (≈ 1.42 mM) | Solubility ([1]; FaSSIF (pH 6.52), 2 h): 560 µg/mL (≈ 1.4 mM) | Solubility ([1]; FaSSIF (pH 6.52), 24 h): 550 µg/mL (≈ 1.37 mM) | pH of filtrate ([1]; FaSSIF (pH 6.52), 0.5 h): 6.27 | pH of filtrate ([1]; FaSSIF (pH 6.52), 2 h): 6.10 | pH of filtrate ([1]; FaSSIF (pH 6.52), 24 h): 5.38 | pH of filtrate ([1]; FeSSIF (pH 4.99), 0.5 h): 4.81 | pH of filtrate ([1]; FeSSIF (pH 4.99), 2 h): 4.80 | pH of filtrate ([1]; FeSSIF (pH 4.99), 24 h): 4.69 | solubility at 30 min ([1]; FeSSIF, pH 4.99, fessif, FeSSIF (pH 4.99), 30 min): 1310 µg/mL (≈ 3.27 mM) | solubility at 2 h ([1]; FeSSIF, pH 4.99, fessif, FeSSIF (pH 4.99), 2 h): 2740 µg/mL (≈ 6.84 mM) | solubility at 24 h ([1]; FeSSIF, pH 4.99, fessif, FeSSIF (pH 4.99), 24 h): 3570 µg/mL (≈ 8.92 mM) | pH of filtrate ([1]; SGF (pH 1.21), 0.5 h): 1.05 | pH of filtrate ([1]; SGF (pH 1.21), 2 h): 1.10 | pH of filtrate ([1]; SGF (pH 1.21), 24 h): 1.11 | solubility at 30 min ([1]; SGF, pH 1.21, simulated gastric fluid, SGF (pH 1.21), 30 min): > 5440 µg/mL | solubility at 2 h ([1]; SGF, pH 1.21, simulated gastric fluid, SGF (pH 1.21), 2 h): > 5400 µg/mL | solubility at 24 h ([1]; SGF, pH 1.21, simulated gastric fluid, SGF (pH 1.21), 24 h): > 5350 µg/mL | effect on tumor volume growth [2]: significant inhibitory effect | physical and chemical stability (purity and crystal form) ([3]; 40° C./75% RH and 60° C., 7 days): no change in purity and crystal form | Purity (peak area %) Average - 40° C./75% RH - 7 d ([3]; solid, 40° C./75% RH, 7 d, average, listed as Sample 5): 99.69 peak area % | Purity (peak area %) 40° C./75% RH - 7 d ([3]; solid, 40° C./75% RH, 7 d, single determinations, listed as Sample 5): 99.68 peak area % and 99.69 peak area % | Purity (peak area %) Average - 60° C. - 7 d ([3]; solid, 60° C., 7 d, average, listed as Sample 5): 99.65 peak area % | Purity (peak area %) 60° C. - 7 d ([3]; solid, 60° C., 7 d, single determinations, listed as Sample 5): 99.56 peak area % and 99.74 peak area % | Purity (peak area %) Average - 0 d ([3]; solid, day 0, average, listed as Sample 5): 99.48 peak area % | Purity (peak area %) 0 d ([3]; solid, day 0, single determinations, listed as Sample 5): 99.46 peak area % and 99.49 peak area % | IC50 (PI3Kβ (p110β)): 44 nM | IC50 (DoHH-2): < 100 nM | effect on tumor volume growth (mouse breast cancer 4T1): significant inhibitory effect | IC50 (PI3Kδ): 0.95 nM | IC50 (PI3Kγ (p110γ)): 4.8 nM
